We go through four molecules from patent US10813914B2, “Composition for controlling microsporidia in fishes and method for controlling microsporidia in fishes using same” (MARUHA NICHIRO CORPORATION, priority 2016, dated 2020).

Marks after values point to notes of the source that are not given here.

Assay [1] has as its system microsporidian cyst (beko cyst), beko disease. In words: Prevention test of beko disease in Mojako using flubendazole (1-2). Conditions: 20 mg/kg Bw oral, 6 times/week, 4 weeks, 10 fishes tested; for Positive average per fish (average number of beko cyst per fish): p < 0.05 vs control. It is filed as in vivo, “Mojako” (yellowtail larva). As to the method:
1-2. Prevention Test of Beko Disease in “Mojako” Using Flubendazole
A preliminary test was carried out according to the following procedure:
(§1) Test number: Live 1000 fishes (each initial body weight: 12 g)
(§2) Administration method: oral administration (feed together with spreading agent)
Drug used: flubendazole (compound represented by the above-described formula (6))
(§3) Administration amount: 20 mg/kg Bw (20 mg per kg of fish body weight)
(§4) Administration interval: 6 times/week
Sampling test procedure: same as above 1-1

Assay [2] has the same test system. Kind of assay: Prevention test of beko disease in Mojako using fenbendazole (1-1). The following applies: 20 mg/kg Bw oral, 6 times/week, 6 weeks, 10 fishes tested; for Positive average per fish (average number of beko cyst per fish): p < 0.05 vs control. It is filed as in vivo, “Mojako” (yellowtail larva). As to the method: 1-1: Prevention Test of Beko Disease in “Mojako” Using Fenbendazole
The prevention test was conducted according to the following procedure.
as §1, §2
Drug used: fenbendazole (compound represented by the above-described formula (1))
as §3
Interval between administration: 6 times/week
A sampling test was carried out according to the following procedure:
Six weeks after the start of administration, each 10 fishes of “Mojako” were taken out from each test group (a control group (the test was conducted under the same conditions as the above-described test conditions, except that the feed fed contained no fenbendazole) and a fenbendazole group), and each fish was cut into three pieces. It was then visually tested whether the microsporidian cyst (beko cyst) was found in the pieces. When the beko cyst was observed, it was judged as positive and the results were accumulated. Regarding the beko cyst that could be confirmed with the naked eye, the number was confirmed and the average infection number per one fish was determined.

The test system is the same in assay [3]. Kind of assay: Prevention test of beko disease in Kanpachi using triclabendazole (1-8). It is filed as in vivo, “Kanpachi” (great amberjack). Conditions: 40 mg/kg Bw oral, 6 times/week. As to the method:
A Prevention test of the beko disease in “Kanpachi” was carried out using triclabendazole. The preliminary test was performed according to the following procedure:
Test number: Live 1000 fishes (each initial body weight: 50 g)
as §2
Drug used: triclabendazole (compound represented by the above-described formula (10))
Administration amount: 40 mg/kg Bw (40 mg per kg of fish body weight)
as §4
Sampling test procedure: same as in the above-described 1-1

A further assay relates to Glugea plecoglossi. Conditions: glugeosis of Ayu, Non-Patent Document 1; cited from earlier work.
Another assay relates to Heterosporis anguillarum. Conditions: beko disease of eels, Non-Patent Document 2; cited from earlier work.
For another assay, the system named is microsporidia. The following applies: culture test, Non-Patent Documents 3 to 7; cited from earlier work.

As for `COC(=O)Nc1nc2cc(C(=O)c3ccc(F)cc3)ccc2[nH]1` [Flubendazole, flubendazole], in assay [1], the “Number of Beko cyst” value was 10, the “Number of positive fishes” value was found to be 5 and the “Positive average per fish (average number of beko cyst per fish)” value (from here on “Positive average per fish”) is 1.0 ± 1.1. In addition, the “Positive average per fish” value in assay [1] (listed as flubendazole) is reported as 1.0±1.1.

Take `COC(=O)Nc1nc2cc(Sc3ccccc3)ccc2[nH]1` [Fenbendazole, fenbendazole]: in assay [2], the “Number of Beko cyst” value was 30, the “Number of positive fishes” value is recorded as 6 and the “Positive average per fish” value turned out to be 3.5 ± 3.83. Besides, in assay [2] (listed as fenbendazole), the “Positive average per fish” value was 3.5±3.83.

With `CSc1nc2cc(Cl)c(Oc3cccc(Cl)c3Cl)cc2[nH]1` [Triclabendazole, triclabendazole], the “Positive fishes (beko cyst) / fishes sampled” value in assay [3] (8 Weeks, p < 0.001, 40 mg/kg) was 0/50***; in assay [3] (8 Weeks, p < 0.001, listed as triclabendazole, 40 mg/kg) it was “significantly suppressed generation of the beko cyst”; in assay [3] (at administration start time), 0/20.

With `CO[C@@H]1[C@H](OC(=O)/C=C/C=C/C=C/C=C/C(=O)O)CC[C@]2(CO2)[C@H]1[C@@]1(C)O[C@@H]1CC=C(C)C` [fumagillin], the Therapeutic efficacy result in the assay with Glugea plecoglossi and in the assay on Heterosporis anguillarum was “high therapeutic efficacy was recognized” each time. In the assay on microsporidia, the “Antimicrobial activity against microsporidia” value was “high antimicrobial activity”.
